Legend:
SK-BR-3 = assay: CellTiter-Glo toxicity, 3 days (Example 7); type: cell-based; conditions: Homo sapiens, SK-BR-3, 72 h; 3 days; read-out: SK-BR-3 IC50
Protocol: The toxicity of PBD monomer disulfide prodrugs 1 to 4, PBD dimer disulfide prodrugs 1 and 4, PBD monomer control 1 and PBD dimer control 1 were evaluated against SK-BR-3 cell cultures. […] The HER2-positive breast cancer cell line, SK-BR-3, was obtained internally at Genentech after having been verified by sequence analysis. The cells were grown at 37 Celsius in DMEM+10% FBS supplemented with 2 mM L-glutamine for the duration of this assay. On the first day of the experiment, designated “Day −1”, SK-BR-3 cells were harvested from tissue culture flasks, counted, and then seeded into 96-well plates at a concentration of 7,500 cells per well. The next day, designated “Day 0”, cell culture media was removed from the cells and replaced with 100 uL of fresh media containing a serial dilution (1:3) of the compounds in Table 5 below. The plates were then returned to the 37 Celsius incubator and allowed to incubate for 3 days. On “Day 3” of the assay, the plates were removed from the incubator and allowed to equilibrate to room temperature before adding 100 uL of room-temperature CellTiter-Glo reagent (Promega). The plates were then agitated at 300 rpm for 10 minutes. The luminescence signal generated from this reaction was recorded on an Envision plate reader (Perkin-Elmer). The data were arranged in Excel (Microsoft) and graphed in Kaleidagraph (Synergy Software).

A2058 = assay: CellTiter-Glo toxicity, 4 days (Example 9); type: cell-based; conditions: Homo sapiens, A2058, 96 h, 4 days of drug incubation; Table 7A
Outline: (§1)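 Cells were seeded in 384-well plates, dosed 24 h later and incubated with drug for 4 days. Viability was read as ATP luminescence by CellTiter-Glo and normalised to untreated controls. IC50 is the concentration giving 50% of maximum cell killing.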

UACC-257 = assay: CellTiter-Glo toxicity, 4 days (Example 9); type: cell-based; conditions: Homo sapiens, UACC-257, 96 h, 4 days of drug incubation; Table 7A
Outline: as §1

Igrov-1 = assay: CellTiter-Glo toxicity, 4 days (Example 9); type: cell-based; conditions: Homo sapiens, IGROV-1, 96 h, 4 days of drug incubation; Table 7A
Outline: as §1

WSU Cell line = assay: Cell viability, DTD-activated quinone prodrugs (Example 15); type: cell-based; conditions: WSU Cell line (low DTD); Table 10; read-out: IC50 Potency
Protocol: (§2) The toxicity of PBD dimer diaphorase prodrug 1, PBD monomer diaphorase prodrug 2, PBD dimer control 1 and PBD monomer control 1 were evaluated against KPL-4 and WSU cell lines for cell viability. The KPL-4 cell line is was a high DTD cell line characterized by NQO1 nRPKM of 839 and the WSU cell line was a low DTD cell line characterized by a NQO1 nRPKM of 1.36. The IC50 ratios are based on the prodrug IC50 value relative to the PBD dimer control.

KPL-4 Cell line = assay: as above; type: cell-based; conditions: KPL4; KPL-4 Cell line (high DTD); Table 10; read-out: IC50 Potency
Protocol: as §2

[1] = system: MDA-MB-453 tumor cell line; assay: in vitro tumor cell killing assay, 3 days (Example 13); type: cell-based; conditions: Homo sapiens, 72 h; MDA-MB-453; 3 days; read-out: EC50
Protocol: The toxicity of various PBD monomer and dimer boronic acid prodrug compounds were evaluated for cell toxicity. In the in vitro tumor cell killing assay, the cells were added to each well of 96-well microtiter plates at 8,000 cells per well and were incubated overnight at 37° C. in a humidified atmosphere of 5% CO2. The cells were exposed to various concentration of the indicated prodrug, positive control and negative control compounds. Where silvestrol was evaluated, a 1:3 serial dilution was used. After incubation for 3 days, Cell titer-Glo reagent (Promega, Madison Wis.) was added to the wells at 100 μL per well followed by a 10-minute incubation at room temperature, and the luminescent signal was measured using a Packard/Perkin-Elmer TopCount.
The toxicity of PBD monomer boronic acid prodrug 1 was evaluated against MDA-MB-453 tumor cell line for cell viability. PBD monomer control 1 was used as a positive control and PBD monomer control 2 was used as a negative control. The toxicity study was repeated wherein the PBD prodrug and controls were administered in combination with silvestrol. FIG. 15C depicts a plot of MDA-MB-453 cell kill versus drug concentration in μM three days after exposure to: (i) a PBD monomer control; (ii) a PBD monomer control having a benzyl formate moiety at the N10 PBD position; and (iii) a PBD monomer boronic acid prodrug. […]

[2] = system: double strand DNA Oligos 1 and 2; assay: DNA oligo binding, LC/MS/UV; conditions: 100 uM compound, 100 uM DNA, 1 hour, 37 C
Protocol: For DNA binding determination, the compounds were incubated at 100 μM with 100 μM double strand DNA Oligos 1 and 2 for 1 hour in 10 mM Bis-Tris, pH 7.1 at 37° C. The single strand DNA Oligos (5′-TATAGAATCTATA-3′ and 3′-ATATCTTAGATAT-5′) were synthesized at Genentech. The samples were analyzed by LC/MS/UV (210-450 nm) on Sciex TripleTOF 5600 on a Hypersil Gold C18 column (100×2.1, 1.9 Thermo Scientific). The column was eluted at 0.4 mL/min by a gradient of buffer A (50 mM hexafluoro-isopropanol and 15 mM diisopropylethylamine) to buffer B (50% A and 50% of 1:1 methanol:acetonitrile), 5% 0-0.5 min, 5-25% B 0.5-25 min, 25-95% B 25-40 min, and to 95% B 40-42 min. The % remaining was an average of the starting DNA oligos remaining in incubations (n=2). The products were characterized by LC/MS in a negative ESI ion mode.

SMILES: C=C1C[C@H]2C=Nc3cc(OC)c(OC)cc3C(=O)N2C1 [PBD monomer control 1, reference compound]
- IC50 (SK-BR-3): 124 nM
- IC50 (A2058): 56.9 nM
- IC50 (UACC-257): 181 nM
- IC50 (Igrov-1): 68.5 nM
- IC50 (WSU Cell line): 106 nM
- IC50 (KPL-4 Cell line): 330 nM
- EC50 [1]: 164 nM
- % DNA oligo remaining [2]: 35%

— patent publication US11576979B2, “Pyrrolobenzodiazepine prodrugs and antibody conjugates thereof” (GENENTECH, INC., priority 2016, dated 2023)
